Data set [1] in a line: Taxol release from protaxols in aqueous buffer. It counts as physicochemical. The conditions noted are these: aqueous buffer. As for the experimental part: The derivatives in which the C-7 hydroxyl group was acetylated were extremely unstable in aqueous media losing the C-7 substituent very rapidly. The stability of the synthesized compounds was examined at various pH's and temperatures. […] Table 1A includes the half-lives of six of these compounds at pH 7.5 and 9. […] This illustrates the ability to fine-tune the rate of release of taxol to a desired set of conditions using simple chemical principles.
Protaxol 5 was dissolved in dimethylsulphoxide (DMSO) at 25° C. and immediately added to the appropriate phosphate buffer solution at the specified temperature. Aliquots were analysed using a Waters Maxima system HPLC instrument equipped with auto-injector (3.9×300 mm C18 column equipped with a precolumn; flow rate, 1.5 ml min^-1; eluant, gradient A-B, where A is 80% 100 mM ammonium acetate, buffer pH 6.0, and B is 100% methanol; ultraviolet detector). The per cent taxol released was determined from the relative areas of the peaks corresponding to protaxol 5 and taxol (the conversion was clean, and it was assumed that the two compounds have equal molar extinction coefficients).

Data set [2] has as its system CHO (normal human mammary). Briefly: Cytotoxicity (sulphorhodamine B), normal cell line, Table 1B. The format is cell-based.
The next data set relates to NHDF (normal human skin). The data set is described as above. It counts as cell-based.
For another data set, the system named is SK (melanoma). Put plainly: Cytotoxicity (sulphorhodamine B), cancer cell line, Table 1B. It counts as cell-based.
The test system of the next data set is SIHA (cervix carcinoma). Described as above. The format is cell-based. The conditions noted are these: Homo sapiens.
A further data set concerns HT-29 (colon carcinoma). Described as above. It counts as cell-based. The settings on record: Homo sapiens.
The next data set relates to L1210 (mouse leukaemia). Described as above. It counts as cell-based.
Another data set concerns H322 (lung carcinoma). Described as above. It counts as cell-based.
Data set [3] has as its system RPMI-7666 (normal human PBLs). Put plainly: Cytotoxicity (sulphorhodamine B), normal cell line, Table 1B. It counts as cell-based.
Method: (§1) The cytotoxicities were determined using the sulphorhodamine B assay method (Skehan, P. et al. J. Nat. Canc. Inst. 82, 1107 (1990)).
Data set [4] deals with 786-0 (renal cell carcinoma). Put plainly: Cytotoxicity (sulphorhodamine B), cancer cell line, Table 1B. The conditions noted are these: Homo sapiens. The format is cell-based.
Method: as §1
In data set [5] the test system is BALB/c 3T3 (normal mouse embryo). Briefly: Cytotoxicity (sulphorhodamine B), normal cell line, Table 1B. It counts as cell-based.
Method: as §1
Data set [6] relates to HL-60 (promyel carcinoma). Put plainly: Cytotoxicity (sulphorhodamine B), cancer cell line, Table 1B. The format is cell-based. The settings on record: Homo sapiens.
Method: as §1
The subject of data set [7] is PC-3 (prostate carcinoma). The data set is described as above. It counts as cell-based. The conditions noted are these: Homo sapiens.
Method: as §1
The test system of the next data set is Capan-1 (pancreatic). The description is as above. It counts as cell-based. The conditions noted are these: Homo sapiens.
Data set [8] concerns MOLT-4 (T-cell leukaemia). Described as above. The format is cell-based. The conditions noted are these: Homo sapiens.
Method: as §1
The test system of data set [9] is BT-549 (breast carcinoma). The description is as above. The format is cell-based. The settings on record: Homo sapiens.
Method: as §1
The test system of data set [10] is CHO (Chinese hamster ovary). Put plainly: Cytotoxicity (sulphorhodamine B), normal cell line, Table 1B. It counts as cell-based. The conditions noted are these: Cricetulus griseus.
Method: as §1
Data set [11] deals with UCLA-P-3 (lung carcinoma). Briefly: Cytotoxicity (sulphorhodamine B), cancer cell line, Table 1B. The settings on record: Homo sapiens. It counts as cell-based.
Method: as §1
In data set [12] the test system is OVCAR-3 (ovarian carcinoma). The description is as above. It counts as cell-based. The settings on record: Homo sapiens, OVCAR-3, 72 h.
Method: as §1
The test system of another data set is MCF-7 (breast carcinoma). Described as above. It counts as cell-based. The settings on record: Homo sapiens.
A short description of data set [13]: Water solubility in D2O by 1H NMR. The conditions noted are these: d2o. Here is the method: The solubilities of the synthesized protaxols in D2 O were determined by 1H NMR spectroscopy.
The resulting mixture was centrifuged for 20 minutes and the supernatant saturated solution was analysed by ^1 H NMR spectroscopy using a Bruker AMX-400 instrument and methanol or pyridine as internal standard. The concentration of the compound was determined by comparing several signals with the CH3 signal of methanol or the NCH signal of pyridine.

Where [14] appears, read: pH 7.5, 37° C., read-out: t1/2 (pH 7.5), 50% taxol release.
The mark [15] stands for this setting: pH 9, 37° C., read-out: t1/2 (pH 9), 50% taxol release.

pIC50: −log10 of the molar value. ≈ marks a conversion by molar mass, not a printed value. Where two headings read alike, the source gives them in different places.

Method for Capan-1 (pancreatic): as §1
Method for H322 (lung carcinoma): as §1
Method for HT-29 (colon carcinoma): as §1
Method for L1210 (mouse leukaemia): as §1
Method for MCF-7 (breast carcinoma): as §1
Method for NHDF (normal human skin): as §1
Method for SIHA (cervix carcinoma): as §1
Method for SK (melanoma): as §1

For `CC(=O)O[C@H]1C(=O)[C@@]2(C)[C@H]([C@H](OC(=O)c3ccccc3)[C@]3(O)C[C@H](OC(=O)[C@H](OC(=O)OCCS(=O)(=O)c4ccccc4)[C@@H](NC(=O)c4ccccc4)c4ccccc4)C(C)=C1C3(C)C)[C@]1(OC(C)=O)CO[C@@H]1C[C@@H]2O`, the results for the half-life in [1] (setting [14]) and in data set [1] (setting [15]) were over 8.33 h and 1.1 h, respectively.

`CC(=O)O[C@H]1C(=O)[C@@]2(C)[C@H]([C@H](OC(=O)c3ccccc3)[C@]3(O)C[C@H](OC(=O)[C@H](OC(=O)OCCSc4ccccc4)[C@@H](NC(=O)c4ccccc4)c4ccccc4)C(C)=C1C3(C)C)[C@]1(OC(C)=O)CO[C@@H]1C[C@@H]2O` [Compound 7]: the pIC50 (in general, the negative decadic logarithm of the IC50, by convention in mol/L) was 4.00 in data set [2] (Homo sapiens, 72 h); 6.00 in the data set on NHDF (normal human skin) (72 h); 5.00 in the data set with SK (melanoma) (72 h); 5.00 in the data set on SIHA (cervix carcinoma) (SiHa, 72 h); over 9.00 with HT-29 (colon carcinoma) (HT-29, 72 h); 5.00 in the data set with L1210 (mouse leukaemia) (L1210, 72 h). In addition, the pIC50 in the data set on H322 (lung carcinoma) (NCI-H322, 72 h) is 9.00; in data set [3] (72 h), 4.00; in [4] (786-0, 72 h) it was 5.00; in data set [5] (BALB/c3T3, 72 h), 5.00; in data set [6] (HL-60, 72 h), over 9.00; in data set [7] (72 h), 6.00. Also, the negative-log IC50 (pIC50) in the data set with Capan-1 (pancreatic) (CAPAN-1, 72 h) was over 9.00; in data set [8] (MOLT-4, 72 h), over 9.00; in data set [9] (BT-549, 72 h), over 9.00; in data set [10] (72 h), 4.00; in data set [11] (UCLA P-3, 72 h), over 9.00; in data set [12], over 9.00. This compound also gave a pIC50 with MCF-7 (breast carcinoma) (MCF7, 72 h) of 5.00.

For the compound `CC(=O)O[C@H]1C(=O)[C@]2(C)[C@@H](OC(=O)COCC(=O)O)C[C@H]3OC[C@@]3(OC(C)=O)[C@H]2[C@H](OC(=O)c2ccccc2)[C@]2(O)C[C@H](OC(=O)[C@H](OC(=O)COCC(=O)O)[C@@H](NC(=O)c3ccccc3)c3ccccc3)C(C)=C1C2(C)C` [Compound 11], the pIC50 was 4.00 in data set [2] (CHO, normal human mammary, 72 hours, read-out: IC50); 6.00 in the data set on NHDF (normal human skin) (72 hours, read-out: IC50); 5.00 in the data set on SK (melanoma) (SK melanoma, 72 hours, read-out: IC50); 5.00 with SIHA (cervix carcinoma) (SIHA, 72 hours, read-out: IC50); over 9.00 in the data set with HT-29 (colon carcinoma) (HT-29, 72 hours, read-out: IC50); 6.00 in the data set on L1210 (mouse leukaemia) (L1210, 72 hours, read-out: IC50). Further, the pIC50 in the data set with H322 (lung carcinoma) (NCI-H322, H322, 72 hours, read-out: IC50) is 9.00; in data set [3] (RPMI-7666, 72 hours, read-out: IC50), 4.00; in data set [4] (786-0, 72 hours, read-out: IC50), 6.00; in [5] (BALB/c3T3, BALB/c 3T3, 72 hours, read-out: IC50) it was 6.00; in data set [6] (HL-60, 72 hours, read-out: IC50) it was over 9.00; in data set [7] (PC-3, 72 hours, read-out: IC50), 6.00. Besides, the pIC50 in the data set on Capan-1 (pancreatic) (Capan-1, 72 hours, read-out: IC50) was over 9.00; in data set [8] (MOLT-4, 72 hours, read-out: IC50) it was over 9.00; in [9] (BT-549, 72 hours, read-out: IC50) it was over 9.00; in data set [10] (CHO, Chinese hamster ovary, 72 hours, read-out: IC50), 4.00; in data set [11] (UCLA-P-3, 72 hours, read-out: IC50), 9.00; in the data set with MCF-7 (breast carcinoma) (MCF7, CF-7 / MCF-7, 72 hours, read-out: IC50) it was 5.00.

In the case of `CC(=O)O[C@H]1C(=O)[C@]2(C)[C@@H](OC(=O)CSCC(=O)O)C[C@H]3OC[C@@]3(OC(C)=O)[C@H]2[C@H](OC(=O)c2ccccc2)[C@]2(O)C[C@H](OC(=O)[C@H](OC(=O)CSCC(=O)O)[C@@H](NC(=O)c3ccccc3)c3ccccc3)C(C)=C1C2(C)C` [Compound 12], the pIC50 is 4.00 in data set [2] (Homo sapiens, 72 h); 6.00 in the data set on NHDF (normal human skin) (72 h); 5.00 with SK (melanoma) (72 h); 5.00 with SIHA (cervix carcinoma) (SiHa, 72 h); 7.00 with HT-29 (colon carcinoma) (HT-29, 72 h); 6.00 with L1210 (mouse leukaemia) (L1210, 72 h). In addition, the pIC50 in the data set with H322 (lung carcinoma) (NCI-H322, 72 h) was 7.00; in [3] (72 h) it was 4.00; in data set [4] (786-0, 72 h) it was 6.00; in data set [5] (BALB/c3T3, 72 h), 5.00; in data set [6] (HL-60, 72 h), over 9.00; in data set [7] (72 h), 6.00. Further, the pIC50 is over 9.00 with Capan-1 (pancreatic) (CAPAN-1, 72 h); over 9.00 in data set [8] (MOLT-4, 72 h); over 9.00 in data set [9] (BT-549, 72 h); 4.00 in data set [10] (72 h); 9.00 in data set [11] (UCLA P-3, 72 h); 5.00 in the data set with MCF-7 (breast carcinoma) (MCF7, 72 h).

On to `CC(=O)O[C@H]1C(=O)[C@@]2(C)[C@H]([C@H](OC(=O)c3ccccc3)[C@]3(O)C[C@H](OC(=O)[C@H](OC(=O)COCC(=O)O)[C@@H](NC(=O)c4ccccc4)c4ccccc4)C(C)=C1C3(C)C)[C@]1(OC(C)=O)CO[C@@H]1C[C@@H]2O` [drawing 5], for which the solubility (as a rule, the concentration that dissolves in the medium under given conditions) in [13] was determined as 840 µg/mL (≈ 866 µM). Further, the half-life in data set [1] (setting [14]) is over 8.33 h; in [1] (setting [15]), 1.83 h.

Turning to `CC(=O)O[C@H]1C(=O)[C@@]2(C)[C@H]([C@H](OC(=O)c3ccccc3)[C@]3(O)C[C@H](OC(=O)[C@H](OC(=O)CSCC(=O)O)[C@@H](NC(=O)c4ccccc4)c4ccccc4)C(C)=C1C3(C)C)[C@]1(OC(C)=O)CO[C@@H]1C[C@@H]2O` [drawing 6], the concentration in solution in [13] (solubility) was 350 µg/mL (≈ 355 µM). Moreover, the values for the half-life in data set [1] (setting [14]) and in data set [1] (setting [15]) were over 8.33 h and 5 h, respectively.

On to `CC(=O)O[C@H]1C(=O)[C@@]2(C)[C@H]([C@H](OC(=O)c3ccccc3)[C@]3(O)C[C@H](OC(=O)[C@H](OC(=O)CS(=O)(=O)CC(=O)O)[C@@H](NC(=O)c4ccccc4)c4ccccc4)C(C)=C1C3(C)C)[C@]1(OC(C)=O)CO[C@@H]1C[C@@H]2O` [drawing 7], for which the solubility in data set [13] was 1200 µg/mL (≈ 1180 µM). In addition, the half-life in data set [1] (setting [14]) is over 8.33 h; in data set [1] (setting [15]), 0.5 h.

Take `CC(=O)O[C@H]1C(=O)[C@@]2(C)[C@H]([C@H](OC(=O)c3ccccc3)[C@]3(O)C[C@H](OC(=O)[C@H](OC(=O)OCCS(=O)(=O)c4ccc([N+](=O)[O-])cc4)[C@@H](NC(=O)c4ccccc4)c4ccccc4)C(C)=C1C3(C)C)[C@]1(OC(C)=O)CO[C@@H]1C[C@@H]2O` [drawing 11]: the half-life in [1] (setting [14]) is over 8.33 h; in [1] (setting [15]), 0.117 h.

Turning to `CC(=O)O[C@H]1C(=O)[C@@]2(C)[C@H]([C@H](OC(=O)c3ccccc3)[C@]3(O)C[C@H](OC(=O)[C@H](OC(=O)OCCS(=O)(=O)c4ccc(N)cc4)[C@@H](NC(=O)c4ccccc4)c4ccccc4)C(C)=C1C3(C)C)[C@]1(OC(C)=O)CO[C@@H]1C[C@@H]2O` [drawing 12], the half-life was over 8.33 h in [1] (setting [14]) and 1.68 h in data set [1] (setting [15]).

On to `CC(=O)O[C@H]1C(=O)[C@]2(C)[C@@H](OC(=O)COCC(=O)O)C[C@H]3OC[C@@]3(OC(C)=O)[C@H]2[C@H](OC(=O)c2ccccc2)[C@]2(O)C[C@H](OC(=O)[C@H](OC(=O)COCC(=O)O)[C@@H](NC(=O)c3ccccc3)c3ccccc3)C(C)=C1C2(C)C` [drawing 13], for which the solubility in [13] was found to be 500 µg/mL (≈ 460 µM).

The compound `CC(=O)O[C@H]1C(=O)[C@]2(C)[C@@H](OC(=O)CSCC(=O)O)C[C@H]3OC[C@@]3(OC(C)=O)[C@H]2[C@H](OC(=O)c2ccccc2)[C@]2(O)C[C@H](OC(=O)[C@H](OC(=O)CSCC(=O)O)[C@@H](NC(=O)c3ccccc3)c3ccccc3)C(C)=C1C2(C)C` [drawing 14] gave a solubility in [13] of 460 µg/mL (≈ 411 µM).
